Experimental data from patent publication US6372446B1, “Method of selectively determining a fungal biomass” (Mycometer ApS, priority 1997, dated 2002).

Experiments:
Assay in all cases: Screening of fungi for enzyme activity with 4-methylumbelliferone-labelled substrates
Format in all cases: cell-based
[1] = system: Trametes versicolor (AGM 24); conditions: substrate 10 μM, 25° C., pH 5; for Enzyme activity: amount of released 4-methylumbelliferone: mineral medium; for Enzyme activity: amount of released 4-methylumbelliferone during 5 hours of incubation: vegetable juice medium
[2] = system: Cladosporium herbarum (AGM 8); conditions: substrate 10 μM, 25° C., pH 5; for Enzyme activity: amount of released 4-methylumbelliferone: mineral medium; for Enzyme activity: amount of released 4-methylumbelliferone during 5 hours of incubation: vegetable juice medium
[3] = system: Paecilomyces farinosus (AGM 5); conditions: substrate 10 μM, 25° C., pH 5; for Enzyme activity: amount of released 4-methylumbelliferone: mineral medium; for Enzyme activity: amount of released 4-methylumbelliferone during 5 hours of incubation: vegetable juice medium
Eurotium sp. (AAS 36) = conditions: substrate 10 μM, 25° C., pH 5; for Enzyme activity: amount of released 4-methylumbelliferone: mineral medium; for Enzyme activity: amount of released 4-methylumbelliferone during 5 hours of incubation: vegetable juice medium
[4] = system: Schizophyllum commune (AGM 25); conditions: substrate 10 μM, 25° C., pH 5; for Enzyme activity: amount of released 4-methylumbelliferone: mineral medium; for Enzyme activity: amount of released 4-methylumbelliferone during 5 hours of incubation: vegetable juice medium
[5] = system: Penicillium solitum (IBT 13771); conditions: substrate 10 μM, 25° C., pH 5; for Enzyme activity: amount of released 4-methylumbelliferone: mineral medium; for Enzyme activity: amount of released 4-methylumbelliferone during 5 hours of incubation: vegetable juice medium
[6] = system: Aureobasidium pullulans (QM 3092); conditions: substrate 10 μM, 25° C., pH 5; for Enzyme activity: amount of released 4-methylumbelliferone during 5 hours of incubation: Aureobasidium pulluians (QM 3092), vegetable juice medium; for Enzyme activity: amount of released 4-methylumbelliferone: Aureobasidium pullulans (QM 3092), mineral medium
[7] = system: Ascobolus crenulatus (AAS 1); conditions: substrate 10 μM, 25° C., pH 5; for Enzyme activity: amount of released 4-methylumbelliferone: mineral medium; for Enzyme activity: amount of released 4-methylumbelliferone during 5 hours of incubation: vegetable juice medium
[8] = system: Aspergillus oryzae (AGM 11); conditions: substrate 10 μM, 25° C., pH 5; for Enzyme activity: amount of released 4-methylumbelliferone: mineral medium; for Enzyme activity: amount of released 4-methylumbelliferone during 5 hours of incubation: vegetable juice medium
[9] = system: Mucor racemosus (AAS 310); conditions: substrate 10 μM, 25° C., pH 5; for Enzyme activity: amount of released 4-methylumbelliferone: mineral medium; for Enzyme activity: amount of released 4-methylumbelliferone during 5 hours of incubation: vegetable juice medium
[10] = system: Aspergillus versicolor (IBT 13738); conditions: substrate 10 μM, 25° C., pH 5; for Enzyme activity: amount of released 4-methylumbelliferone: mineral medium; for Enzyme activity: amount of released 4-methylumbelliferone during 5 hours of incubation: vegetable juice medium
[11] = system: Rhizomucor pusillus (AAS 300); conditions: substrate 10 μM, 25° C., pH 5; for Enzyme activity: amount of released 4-methylumbelliferone: mineral medium; for Enzyme activity: amount of released 4-methylumbelliferone during 5 hours of incubation: vegetable juice medium
[12] = system: Penicillium commune (IBT 13713); conditions: substrate 10 μM, 25° C., pH 5; for Enzyme activity: amount of released 4-methylumbelliferone: mineral medium; for Enzyme activity: amount of released 4-methylumbelliferone during 5 hours of incubation: vegetable juice medium
[13] = system: Sodaria fimicola (AAS 17); conditions: substrate 10 μM, 25° C., pH 5; for Enzyme activity: amount of released 4-methylumbelliferone: mineral medium; for Enzyme activity: amount of released 4-methylumbelliferone during 5 hours of incubation: vegetable juice medium

SMILES | Enzyme activity: amount of released 4-methylumbelliferone [1] | Enzyme activity: amount of released 4-methylumbelliferone during 5 hours of incubation [1] | Enzyme activity: amount of released 4-methylumbelliferone [2] | Enzyme activity: amount of released 4-methylumbelliferone during 5 hours of incubation [2] | Enzyme activity: amount of released 4-methylumbelliferone [3] | Enzyme activity: amount of released 4-methylumbelliferone during 5 hours of incubation [3] | Enzyme activity: amount of released 4-methylumbelliferone (Eurotium sp. (AAS 36)) | Enzyme activity: amount of released 4-methylumbelliferone during 5 hours of incubation (Eurotium sp. (AAS 36)) | Enzyme activity: amount of released 4-methylumbelliferone [4] | Enzyme activity: amount of released 4-methylumbelliferone during 5 hours of incubation [4] | Enzyme activity: amount of released 4-methylumbelliferone [5] | Enzyme activity: amount of released 4-methylumbelliferone during 5 hours of incubation [5] | Enzyme activity: amount of released 4-methylumbelliferone during 5 hours of incubation [6] | Enzyme activity: amount of released 4-methylumbelliferone [6] | Enzyme activity: amount of released 4-methylumbelliferone [7] | Enzyme activity: amount of released 4-methylumbelliferone during 5 hours of incubation [7] | Enzyme activity: amount of released 4-methylumbelliferone [8] | Enzyme activity: amount of released 4-methylumbelliferone during 5 hours of incubation [8] | Enzyme activity: amount of released 4-methylumbelliferone [9] | Enzyme activity: amount of released 4-methylumbelliferone during 5 hours of incubation [9] | also measured
CC(=O)N[C@H]1[C@H](Oc2ccc3c(C)cc(=O)oc3c2)O[C@H](COS(=O)(=O)O)[C@@H](O)[C@@H]1O [substrate 1, 4-methylumbelliferyl 7-6(sulfo-2-acetamido-2-deoxy-β-D-glucopyranoside)] | 0 µmol | 0 µmol | 0 µmol | 0 µmol | 0 µmol | 0 µmol | 0 µmol | 0 µmol | * (0.4 ≦ * < 1) | 0 µmol | 0 µmol | 0 µmol | 0 µmol | 0 µmol | 0 µmol | 0 µmol | 0 µmol | 0 µmol | * (0.4 ≦ * < 1) | * (0.4 ≦ * < 1) | Enzyme activity: amount of released 4-methylumbelliferone [10]: 0 µmol; Enzyme activity: amount of released 4-methylumbelliferone during 5 hours of incubation [10]: 0 µmol; Enzyme activity: amount of released 4-methylumbelliferone [11]: 0 µmol; Enzyme activity: amount of released 4-methylumbelliferone during 5 hours of incubation [11]: 0 µmol; Enzyme activity: amount of released 4-methylumbelliferone [12]: 0 µmol; Enzyme activity: amount of released 4-methylumbelliferone during 5 hours of incubation [12]: 0 µmol; Enzyme activity: amount of released 4-methylumbelliferone [13]: 0 µmol; Enzyme activity: amount of released 4-methylumbelliferone during 5 hours of incubation [13]: 0 µmol
CC(=O)N[C@H]1[C@@H](Oc2ccc3c(C)cc(=O)oc3c2)O[C@H](CO)[C@@H](O)[C@@H]1O [substrate 2, 4-methylumbelliferyl N-acetyl-α-D-glucosaminide] | 0 µmol | 0 µmol | 0 µmol | 0 µmol | 0 µmol | 0 µmol | 0 µmol | 0 µmol | 0 µmol | 0 µmol | 0 µmol | 0 µmol | 0 µmol | 0 µmol | 0 µmol | 0 µmol | 0 µmol | 0 µmol | 0 µmol | 0 µmol | Enzyme activity: amount of released 4-methylumbelliferone [10]: 0 µmol; Enzyme activity: amount of released 4-methylumbelliferone during 5 hours of incubation [10]: 0 µmol; Enzyme activity: amount of released 4-methylumbelliferone [11]: 0 µmol; Enzyme activity: amount of released 4-methylumbelliferone during 5 hours of incubation [11]: 0 µmol; Enzyme activity: amount of released 4-methylumbelliferone [12]: 0 µmol; Enzyme activity: amount of released 4-methylumbelliferone during 5 hours of incubation [12]: 0 µmol; Enzyme activity: amount of released 4-methylumbelliferone [13]: 0 µmol; Enzyme activity: amount of released 4-methylumbelliferone during 5 hours of incubation [13]: 0 µmol
Cc1cc(=O)oc2cc(OC3OC(CO)C(O)C(O)C3O)ccc12 [substrate 5, 4-methylumbelliferyl α-D-mannopyranoside] | 0 µmol | * (0.4 ≦ * < 1) | 0 µmol | 0 µmol | 0 µmol | 0 µmol | 0 µmol | * (0.4 ≦ * < 1) | 0 µmol | ** (1 ≦ ** 2) | 0 µmol | 0 µmol | ** (1 ≦ ** 2) | 0 µmol | 0 µmol | 0 µmol | 0 µmol | *** (2 ≦ ***) | 0 µmol | * (0.4 ≦ * < 1) | Enzyme activity: amount of released 4-methylumbelliferone [10]: 0 µmol; Enzyme activity: amount of released 4-methylumbelliferone during 5 hours of incubation [10]: 0 µmol; Enzyme activity: amount of released 4-methylumbelliferone [11]: 0 µmol; Enzyme activity: amount of released 4-methylumbelliferone during 5 hours of incubation [11]: *** (2 ≦ ***); Enzyme activity: amount of released 4-methylumbelliferone [12]: 0 µmol; Enzyme activity: amount of released 4-methylumbelliferone during 5 hours of incubation [12]: * (0.4 ≦ * < 1); Enzyme activity: amount of released 4-methylumbelliferone [13]: 0 µmol; Enzyme activity: amount of released 4-methylumbelliferone during 5 hours of incubation [13]: *** (2 ≦ ***)
Cc1cc(=O)oc2cc(O[C@@H]3O[C@H](CO)[C@@H](O)[C@H](O)[C@@H]3O)ccc12 [substrate 6, 4-methylumbelliferyl β-D-mannopyranoside] | 0 µmol | 0 µmol | 0 µmol | 0 µmol | 0 µmol | 0 µmol | 0 µmol | 0 µmol | 0 µmol | *** (2 ≦ ***) | 0 µmol | 0 µmol | ** (1 ≦ ** 2) | 0 µmol | 0 µmol | * (0.4 ≦ * < 1) | 0 µmol | *** (2 ≦ ***) | 0 µmol | ** (1 ≦ ** 2) | Enzyme activity: amount of released 4-methylumbelliferone [10]: 0 µmol; Enzyme activity: amount of released 4-methylumbelliferone during 5 hours of incubation [10]: 0 µmol; Enzyme activity: amount of released 4-methylumbelliferone [11]: 0 µmol; Enzyme activity: amount of released 4-methylumbelliferone during 5 hours of incubation [11]: 0 µmol; Enzyme activity: amount of released 4-methylumbelliferone [12]: 0 µmol; Enzyme activity: amount of released 4-methylumbelliferone during 5 hours of incubation [12]: * (0.4 ≦ * < 1); Enzyme activity: amount of released 4-methylumbelliferone [13]: 0 µmol; Enzyme activity: amount of released 4-methylumbelliferone during 5 hours of incubation [13]: *** (2 ≦ ***)
Cc1cc(=O)oc2cc(O[C@H]3O[C@H](CO)[C@@H](O)[C@H](O)[C@H]3O)ccc12 [substrate 7, 4-methylumbelliferyl α-D-glucoside] | 0 µmol | 0 µmol | 0 µmol | 0 µmol | 0 µmol | 0 µmol | 0 µmol | 0 µmol | 0 µmol | 0 µmol | 0 µmol | 0 µmol | *** (2 ≦ ***) | *** (2 ≦ ***) | 0 µmol | 0 µmol | 0 µmol | 0 µmol | 0 µmol | 0 µmol | Enzyme activity: amount of released 4-methylumbelliferone [10]: 0 µmol; Enzyme activity: amount of released 4-methylumbelliferone during 5 hours of incubation [10]: 0 µmol; Enzyme activity: amount of released 4-methylumbelliferone [11]: 0 µmol; Enzyme activity: amount of released 4-methylumbelliferone during 5 hours of incubation [11]: * (0.4 ≦ * < 1); Enzyme activity: amount of released 4-methylumbelliferone [12]: 0 µmol; Enzyme activity: amount of released 4-methylumbelliferone during 5 hours of incubation [12]: 0 µmol; Enzyme activity: amount of released 4-methylumbelliferone [13]: 0 µmol; Enzyme activity: amount of released 4-methylumbelliferone during 5 hours of incubation [13]: ** (1 ≦ ** 2)
